Source: paper PMC10584170, “Machine learning-based phenotypic imaging to characterise the targetable biology of Plasmodium falciparum male gametocytes for the development of transmission-blocking antimalarials” (PLOS Pathogens, 2023)
Read-outs that look alike come from different tables or passages of the source.

Experiments:
[1] = tested on: HepG2 cells; assay: HepG2 cytotoxicity counter-screen; settings: cytotoxic activity against HepG2 cells
[2] = tested on: P. falciparum male gametocytes; assay: P. falciparum Dual Gamete Formation Assay (PfDGFA), male readout (exflagellation); format: cell-based, Plasmodium falciparum NF54; settings: for HitlevelM: number of replicates with >50% inhibition in the male readout; for Selectivity Ratio M: HepG2 Tox50 versus male IC50; for IC50: PfDGFA, 24 h incubation with gametocytes before induction, exflagellation readout, read-out: Male IC50
Procedure, shortened: (§1)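 NF54 mature gametocytes (d14), cpd 24 h 37°C hypoxic gas; trigger: xanthurenic acid ookinete medium + Cy3 anti-Pfs25, 4°C 4 min → 28°C 4 min. Male: exflagellation centres, brightfield x6. Female: Pfs25+ gametes, fluorescence, +24 h 28°C dark.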

[3] = tested on: P. falciparum female gametocytes; assay: P. falciparum Dual Gamete Formation Assay (PfDGFA), female readout (Pfs25-positive female gametes); format: cell-based, Plasmodium falciparum NF54; settings: for HitlevelF: number of replicates with >50% inhibition in the female readout; for Selectivity ratio F: HepG2 Tox50 versus female IC50; for IC50: PfDGFA, 24 h incubation with gametocytes before induction, female gamete readout, read-out: Female IC50
Procedure, shortened: as §1

[4] = PfDGFA at 2µM, 24h preincubation with gametocytes, average of replicates
[5] = PfDGFA at 2µM, 24h preincubation with gametocytes, replicate R1
[6] = PfDGFA at 2µM, 24h preincubation with gametocytes, replicate R3
[7] = PfDGFA at 2µM, 24h preincubation with gametocytes, replicate R4
[8] = 2µM, 24h preincubation with gametocytes prior to induction of gametogenesis, average of replicates
[9] = 2µM, 24h preincubation with gametocytes prior to induction of gametogenesis, replicate R1
[10] = 2µM, 24h preincubation with gametocytes prior to induction of gametogenesis, replicate R3
[11] = 2µM, 24h preincubation with gametocytes prior to induction of gametogenesis, replicate R4
[12] = 2µM, 24h preincubation with gametocytes, average of replicates
[13] = 2µM, 24h preincubation with gametocytes, replicate R1
[14] = 2µM, 24h preincubation with gametocytes, replicate R3
[15] = 2µM, 24h preincubation with gametocytes, replicate R4

## COc1ccc2nc(-c3cc(-c4ccc(NC(C)=O)cc4)cnc3N)[nH]c2c1 [TCMDC-135365]
[1]
  Tox50: 3.08 µM
[2]; 2µM, 24h preincubation
  HitlevelM: 3
[2]
  Selectivity Ratio M: 5.74
[2]; Plasmodium falciparum, 2µM, 24h preincubation with gametocytes prior to induction of gametogenesis, average of replicates, read-out: Average inhibition male (%)
  inhibition at 2 µM: 61.3%
[2]; Plasmodium falciparum, 2µM, 24h preincubation with gametocytes prior to induction of gametogenesis, replicate R1, read-out: % inhibition male (individual replicates) R1
  inhibition at 2 µM: 62.6%
[2]; Plasmodium falciparum, 2µM, 24h preincubation with gametocytes prior to induction of gametogenesis, replicate R2, read-out: % inhibition male (individual replicates) R2
  inhibition at 2 µM: 72.6%
[2]; Plasmodium falciparum, 2µM, 24h preincubation with gametocytes prior to induction of gametogenesis, replicate R3, read-out: % inhibition male (individual replicates) R3
  inhibition at 2 µM: 63.7%
[2]; Plasmodium falciparum, 2µM, 24h preincubation with gametocytes prior to induction of gametogenesis, replicate R4, read-out: % inhibition male (individual replicates) R4
  inhibition at 2 µM: 46.2%
[2]; Plasmodium falciparum
  IC50: 0.54 µM
[3]; 2µM, 24h preincubation
  HitlevelF: 0
[3]
  Selectivity ratio F: 0.31
[3]; Plasmodium falciparum, 2µM, 24h preincubation with gametocytes prior to induction of gametogenesis, average of replicates, read-out: Average inhibition female (%)
  inhibition at 2 µM: -1.9%
[3]; Plasmodium falciparum, 2µM, 24h preincubation with gametocytes prior to induction of gametogenesis, replicate R1, read-out: % inhibition female (individual replicates) R1
  inhibition at 2 µM: -7.6%
[3]; Plasmodium falciparum, 2µM, 24h preincubation with gametocytes prior to induction of gametogenesis, replicate R2, read-out: % inhibition female (individual replicates) R2
  inhibition at 2 µM: 14.6%
[3]; Plasmodium falciparum, 2µM, 24h preincubation with gametocytes prior to induction of gametogenesis, replicate R3, read-out: % inhibition female (individual replicates) R3
  inhibition at 2 µM: -10.3%
[3]; Plasmodium falciparum, 2µM, 24h preincubation with gametocytes prior to induction of gametogenesis, replicate R4, read-out: % inhibition female (individual replicates) R4
  inhibition at 2 µM: -4.4%
[3]; Plasmodium falciparum
  IC50: > 10 µM

## CCS(=O)(=O)Nc1ccc2c(c1)/C(=C(/Nc1ccc(CN3CCCCC3)cc1)c1ccccc1)C(=O)N2 [TCMDC-135395]
[1]
  Tox50: 0.56 µM
[2]
  Selectivity Ratio M: 46.97
[2]; Plasmodium falciparum, 2µM, 24h preincubation with gametocytes, average of replicates, read-out: Average inhibition male (%)
  inhibition at 2 µM: 91.1%
[2]; Plasmodium falciparum, 2µM, 24h preincubation with gametocytes, replicate R1, read-out: % inhibition male (individual replicates) R1
  inhibition at 2 µM: 87%
[2]; Plasmodium falciparum, 2µM, 24h preincubation with gametocytes, replicate R2, read-out: % inhibition male (individual replicates) R2
  inhibition at 2 µM: 89.8%
[2]; Plasmodium falciparum, 2µM, 24h preincubation with gametocytes, replicate R3, read-out: % inhibition male (individual replicates) R3
  inhibition at 2 µM: 92.4%
[2]; Plasmodium falciparum, 2µM, 24h preincubation with gametocytes, replicate R4, read-out: % inhibition male (individual replicates) R4
  inhibition at 2 µM: 95.2%
[2]; Plasmodium falciparum
  IC50: 0.01 µM
[3]
  Selectivity ratio F: 0.06
[3]; Plasmodium falciparum, 2µM, 24h preincubation with gametocytes, average of replicates, read-out: Average inhibition female (%)
  inhibition at 2 µM: -5.9%
[3]; Plasmodium falciparum, 2µM, 24h preincubation with gametocytes, replicate R1, read-out: % inhibition female (individual replicates) R1
  inhibition at 2 µM: -6.3%
[3]; Plasmodium falciparum, 2µM, 24h preincubation with gametocytes, replicate R2, read-out: % inhibition female (individual replicates) R2
  inhibition at 2 µM: -3.4%
[3]; Plasmodium falciparum, 2µM, 24h preincubation with gametocytes, replicate R3, read-out: % inhibition female (individual replicates) R3
  inhibition at 2 µM: 1.2%
[3]; Plasmodium falciparum, 2µM, 24h preincubation with gametocytes, replicate R4, read-out: % inhibition female (individual replicates) R4
  inhibition at 2 µM: -15.3%
[3]; Plasmodium falciparum
  IC50: > 10 µM

## COc1cc(NC(=O)c2sc(-c3ccc(Cl)cc3)cc2NC(=O)c2ccncc2)ccc1OCCN1CCCC1 [TCMDC-135398]
[1]
  Tox50: 6.24 µM
[2]
  Selectivity Ratio M: 3.15
  IC50: 1.98 µM
[2]; [4]
  Average inhibition male (%): 74.1%
[2]; [5]
  % inhibition male (individual replicates) R1: 92.1%
[2]; [6]
  % inhibition male (individual replicates) R3: 87.5%
[2]; [7]
  % inhibition male (individual replicates) R4: 101.9%
[2]; 2µM
  HitlevelM: 3
[3]
  Selectivity ratio F: 2.54
  IC50: 2.46 µM
[3]; [4]
  Average inhibition female (%): 76.4%
[3]; [5]
  % inhibition female (individual replicates) R1: 76.9%
[3]; [6]
  % inhibition female (individual replicates) R3: 72.6%
[3]; [7]
  % inhibition female (individual replicates) R4: 86.6%
[3]; 2µM
  HitlevelF: 4

## O=C(Nc1cccc(-c2nn3ncccc3c2-c2ccnc(Nc3cccc(-c4cnco4)c3)n2)c1)c1c(F)cccc1F [TCMDC-135550]
[1]
  Tox50: 1.85 µM
[2]; [8]
  Average inhibition male (%): 55.8%
[2]; [9]
  % inhibition male (individual replicates) R1: 81.6%
[2]; [10]
  % inhibition male (individual replicates) R3: 54.6%
[2]; [11]
  % inhibition male (individual replicates) R4: 6.2%
[2]; 2µM, 24h preincubation
  HitlevelM: 3
[2]
  Selectivity Ratio M: 4.7
  IC50: 0.39 µM
[3]; [8]
  Average inhibition female (%): -4.1%
[3]; [9]
  % inhibition female (individual replicates) R1: -3.8%
[3]; [10]
  % inhibition female (individual replicates) R3: -14.6%
[3]; [11]
  % inhibition female (individual replicates) R4: 0.16%
[3]; 2µM, 24h preincubation
  HitlevelF: 0
[3]
  Selectivity ratio F: 0.18

## COc1cc(Nc2nccc(-c3c(-c4cccc(NC(=O)c5c(F)cccc5F)c4)nn4ncccc34)n2)cc(OC)c1OC [TCMDC-135684]
[1]
  Tox50: 1.17 µM
[2]; [12]
  Average inhibition male (%): 97.0%
[2]; [13]
  % inhibition male (individual replicates) R1: 96.5%
[2]; [14]
  % inhibition male (individual replicates) R3: 98.0%
[2]; [15]
  % inhibition male (individual replicates) R4: 98.2%
[2]
  Selectivity Ratio M: 4.28
  IC50: 0.27 µM
[3]; [12]
  Average inhibition female (%): 9.6%
[3]; [13]
  % inhibition female (individual replicates) R1: 8.4%
[3]; [14]
  % inhibition female (individual replicates) R3: 15.7%
[3]; [15]
  % inhibition female (individual replicates) R4: 19.8%
[3]
  Selectivity ratio F: 0.12

## CCn1c(-c2nonc2N)nc2c(-c3ccccc3)ncc(OCCCNCCCN3CCOCC3)c21.O=C(O)C(F)(F)F [TCMDC-135858]
[1]
  Tox50: 16.12 µM
[2]
  Selectivity Ratio M: 11.73
[2]; Plasmodium falciparum, PfDGFA at 2µM, 24h preincubation with gametocytes, average of replicates, read-out: Average inhibition male (%)
  inhibition at 2 µM: 85.1%
[2]; Plasmodium falciparum, PfDGFA at 2µM, 24h preincubation with gametocytes, replicate R1, read-out: % inhibition male (individual replicates) R1
  inhibition at 2 µM: 80.4%
[2]; Plasmodium falciparum, PfDGFA at 2µM, 24h preincubation with gametocytes, replicate R2, read-out: % inhibition male (individual replicates) R2
  inhibition at 2 µM: 88.6%
[2]; Plasmodium falciparum, PfDGFA at 2µM, 24h preincubation with gametocytes, replicate R4, read-out: % inhibition male (individual replicates) R4
  inhibition at 2 µM: 86.5%
[2]; Plasmodium falciparum
  IC50: 1.37 µM
[2]; 2µM
  HitlevelM: 3
[3]
  Selectivity ratio F: 2.48
[3]; Plasmodium falciparum, PfDGFA at 2µM, 24h preincubation with gametocytes, average of replicates, read-out: Average inhibition female (%)
  inhibition at 2 µM: 23%
[3]; Plasmodium falciparum, PfDGFA at 2µM, 24h preincubation with gametocytes, replicate R1, read-out: % inhibition female (individual replicates) R1
  inhibition at 2 µM: 22.7%
[3]; Plasmodium falciparum, PfDGFA at 2µM, 24h preincubation with gametocytes, replicate R2, read-out: % inhibition female (individual replicates) R2
  inhibition at 2 µM: 28.7%
[3]; Plasmodium falciparum, PfDGFA at 2µM, 24h preincubation with gametocytes, replicate R3, read-out: % inhibition female (individual replicates) R3
  inhibition at 2 µM: 18.7%
[3]; Plasmodium falciparum, PfDGFA at 2µM, 24h preincubation with gametocytes, replicate R4, read-out: % inhibition female (individual replicates) R4
  inhibition at 2 µM: 21.9%
[3]; Plasmodium falciparum
  IC50: 6.49 µM
[3]; 2µM
  HitlevelF: 0

## CS(=O)(=O)O.FC(F)(F)COc1c(CCNCCCCNCCc2ccc3ccccc3c2OCC(F)(F)F)ccc2ccccc12 [TCMDC-137169]
[1]
  Tox50: 2.63 µM
[2]; [12]
  Average inhibition male (%): 91.7%
[2]; [13]
  % inhibition male (individual replicates) R1: 101.1%
[2]; [14]
  % inhibition male (individual replicates) R3: 96.8%
[2]; [15]
  % inhibition male (individual replicates) R4: 99.1%
[2]
  Selectivity Ratio M: 3.23
  IC50: 0.81 µM
[3]; [12]
  Average inhibition female (%): 87.0%
[3]; [13]
  % inhibition female (individual replicates) R1: 87.1%
[3]; [14]
  % inhibition female (individual replicates) R3: 97.3%
[3]; [15]
  % inhibition female (individual replicates) R4: 102.2%
[3]
  Selectivity ratio F: 2.09
  IC50: 1.26 µM
